Measurements published in US5843941A, “Ras farnesyl transferase inhibitors” (Genentech, Inc., priority 1994, dated 1998).

Columns and labels:
[1] = test system: ras-transformed rat-1 fibroblasts; assay: Cell growth of ras-transformed rat-1 fibroblasts; format: cell-based; conditions: Fibroblast, 240 h, 10 days, FIG. 7 Panel B
Description: (§1) To examine the effects of farnesyltransferase inhibition on cell growth, three cell lines (ras-transformed rat-1, src-transformed rat-1, and parental rat-1 cells) were seeded (see FIG. 7) at low density and allowed to grow for 10 days in the absence or presence of increasing concentrations of BZA-5B (compound 37). See Example 128 for description of cells. On day 0, cells were plated in monolayer culture at 2×10^3 cells per well (24-well plates) in 1 ml DMEM supplemented with 10% fetal calf serum, 100 U/ml penicillin, 100 μg/ml streptomycin, 0.5 mM DTT, 0.025% DMSO, and the indicated concentration of BZA-5B (compound 37). On days 3 and 7, cells were washed and refed with the same medium. At the time indicated in FIG. 7, cells were harvested by trypsinization and counted in a Coulter counter. Panels A, C, E show the growth rate of each cell line in the absence of inhibitor. Panels B, D, F show the inhibition of growth as a function of concentration of BZA-5B at each time point. The "100% values" correspond to the appropriate cell numbers in Panels A, C, E at the indicated time. Each value represents a single incubation. As shown in the panels A, C, and E, all three cell lines grew logarithmically with no added inhibitor. […] The growth of src-transformed (Panel D) and untransformed cells (Panel F) were not affected at concentrations of BZA-5B up to 25 μM.

[2] = test system: untransformed parental rat-1 fibroblasts; assay: Cell growth of untransformed parental rat-1 fibroblasts; format: cell-based; conditions: up to 25 μM; FIG. 7 Panel F
Description: as §1

[3] = test system: src-transformed rat-1 fibroblasts; assay: Cell growth of src-transformed rat-1 fibroblasts; format: cell-based; conditions: up to 25 μM; FIG. 7 Panel D
Description: as §1

[4] = test system: untransformed rat-1 fibroblasts; assay: Changes in morphology of untransformed cells; format: cell-based; conditions: FIG. 6E and F
Description: (§2) Compound 27A (denoted as BG269A in the figure) and compound 27B (denoted as BG269B in the figure) were added at 250 μM to test whether these compounds would induce reversion to a more normal phenotype as had been previously shown with microinjection of anti-Ras antibodies (see Feramisco, J. R. et al Nature 314, 639 (1985)). The H-ras transformed cells, denoted as rat 2.2 cells, were generated by transfection of rat-1 fibroblasts as described (see Seeburg, P. H., Colby, W. W., Capon, D. J., Goeddel, D. V., and Levinson, A. D. Nature 312,71 (1984)). Cells that overgrew the monolayer were extracted and plated onto agar to obtain a cell line displaying a fully transformed phenotype. Untransformed rat-1 fibroblasts and src-transformed rat-1 fibroblasts were also treated. The src-transformed cells were generated by co-transfection of rat-1 fibroblasts with pSV3.Neo.src, a vector containing the gene for src as well as the gene that confers G418 resistance, both under control of SV40 early promoters. G418-resistant cell clones that diplayed a transformed phenotype were used to generate the cell line. On day 0, cells were plated in monolayer culture at 3×10^3 cells per well (24-well plates) in 1 ml DMEM supplemented with 10% FCS, 100 U/ml penicillin, 10 μg/ml streptomycin, 2% DMSO, and 0.5 mM DTT with and without 200 μM inhibitor. On day 3, the cells were refed with the same medium. […]

[5] = test system: Ras proteins in Met18b-2 cells; assay: Incorporation of [3H]mevalonate into immunoprecipitated Ras proteins in Met18b-2 cells; format: cell-based, Chinese hamster; conditions: FIG. 5
Description: In each experiment, aliquots of the Triton X-100 fraction (300 μg protein, prepared as described above) were incubated with 1 μg anti-Ras monoclonal antibody (Oncogene Sciences, Inc.) overnight at 4° C. on a rotating platform. Immune complexes were precipitated by addition of 25 μl Protein A-agarose suspension that had been pre-coated with goat anti-rat IgG (Oncogene Sciences, Inc.) according to the manufacturer's instructions. After a 30 min incubation at 4° C., the agarose beads were pelleted by centrifugation and washed 5 times with 1 ml each of wash solution (50 mM Tris-HCl, 50 mM NaCl, 0.5% (w/v) deoxycholate, 0.5% (v/v) Nonidet P-40, and 0.1% (w/v) SDS at pH 7.5). 75 μl of 1X SDS sample buffer was added and each sample heated for 5 min at 95° C. before electrophoresis as above.

[6] = test system: src-transformed rat-1 fibroblasts; assay: Changes in morphology of src-transformed cells; format: cell-based; conditions: FIG. 6C/6D
Description: as §2

[7] = test system: H-ras(Val12)-transformed rat-1 fibroblasts (rat 2.2 cells); assay: Changes in morphology of H-ras-transformed cells; format: cell-based; conditions: 5 days; FIG. 6A/6B
Description: Compound 27A (denoted as BG269A in the figure) and compound 27B (denoted as BG269B in the figure) were added at 250 μM to test whether these compounds would induce reversion to a more normal phenotype as had been previously shown with microinjection of anti-Ras antibodies (see Feramisco, J. R. et al Nature 314, 639 (1985)). The H-ras transformed cells, denoted as rat 2.2 cells, were generated by transfection of rat-1 fibroblasts as described (see Seeburg, P. H., Colby, W. W., Capon, D. J., Goeddel, D. V., and Levinson, A. D. Nature 312,71 (1984)). Cells that overgrew the monolayer were extracted and plated onto agar to obtain a cell line displaying a fully transformed phenotype. Untransformed rat-1 fibroblasts and src-transformed rat-1 fibroblasts were also treated. The src-transformed cells were generated by co-transfection of rat-1 fibroblasts with pSV3.Neo.src, a vector containing the gene for src as well as the gene that confers G418 resistance, both under control of SV40 early promoters. G418-resistant cell clones that diplayed a transformed phenotype were used to generate the cell line. On day 0, cells were plated in monolayer culture at 3×10^3 cells per well (24-well plates) in 1 ml DMEM supplemented with 10% FCS, 100 U/ml penicillin, 10 μg/ml streptomycin, 2% DMSO, and 0.5 mM DTT with and without 200 μM inhibitor. On day 3, the cells were refed with the same medium. On day 5, the cells were photographed under contrast at a magnification of 100X. […] This change in morphology is remarkably similar to that seen following injection of anti-ras antibodies into ras-transformed cells (see Feramisco, J. R. et al Nature 314, 639 (1985)). Rat-1 fibroblasts transformed with the src oncogene also grew in a multilayered pattern (FIG. 6C), but this was not affected by compound 27A or compound 27B (FIG. 6D).

| SMILES | inhibition at 25 µM [1] | growth of untransformed cells [2] | growth of src-transformed cells [3] | effect on morphology of untransformed cells [4] | effect of control molecules on [3H]mevalonate incorporation [5] | effect on morphology of src-transformed cells [6] | effect on transformed phenotype (morphology) [7] |
| --- | --- | --- | --- | --- | --- | --- | --- |
| COC(=O)[C@H](CCSC)NC(=O)CN1C(=O)C(N(C)C(=O)[C@@H](N)CS)N=C(c2ccccc2)c2ccccc21 (stereo partly shown) [BZA-5B] | ~90% | not affected | not affected | – | – | – | – |
| CSCC[C@H](NC(=O)CN1C(=O)C(N(C)C(=O)[C@@H](N)CS)N=C(c2ccccc2)c2ccccc21)C(=O)O (single isomer, unassigned) [27A] | – | – | – | no apparent effect on the morphology of untransformed rat-1 fibroblasts | had no effect | not affected | had no effect |
